As usually defined, the Kd is the free concentration of one partner at which half of the binding sites on the other are occupied at equilibrium, for simple one-to-one binding.

Entries after “also recorded” stand apart in the source; their conditions may differ.

Here are results for six compounds from article PMC7803792 (Slas Discovery, 2021).

Test [1] addresses T1, SARS-CoV-2 nsp10-nsp16 complex (Severe acute respiratory syndrome coronavirus 2, UniProt P0DTD1). The settings on record: FP, 30 nM FAM-RNA, maximum FP signal.
Test [2] addresses T1, SARS-CoV-2 nsp10-nsp16 complex. Description: FP-based RNA displacement assay. The class given is binding. The settings on record: concentration for 50% displacement of 30 nM FAM-RNA from 0.5 µM nsp10-nsp16 complex.
Test [3] deals with SARS-CoV nsp10-nsp16 complex. To be noted: cited from earlier work.
In test [4] the target is T1, SARS-CoV-2 nsp10-nsp16 complex. Description: Isothermal titration calorimetry. In kind it is binding. In general terms: In ITC the heat of successive injections is recorded.

Regarding 5′ N7-meGpppACCCCC-FAM 3′, the Bmax in test [1] worked out at 270 ± 5 mP. In the case of `Nc1nc2c(ncn2[C@@H]2O[C@H](COP(=O)(O)OP(=O)(O)OP(=O)(O)OC[C@H]3O[C@@H](n4cnc5c(N)ncnc54)[C@H](O)[C@@H]3O)[C@@H](O)[C@H]2O)c(=O)[nH]1` [GpppA, G(5′)ppp(5′)A], in test [2], the “Kdisp (K displacement)” value was “unable to displace; also recorded: did not disrupt; also recorded: no RNA displacement”. As for `Nc1nc2c(ncn2[C@@H]2O[C@H](COP(=O)(O)OP(=O)(O)OP(=O)(O)OC[C@H]3O[C@@H](n4cnc5c(=O)[nH]c(N)nc54)[C@H](O)[C@@H]3O)[C@@H](O)[C@H]2O)c(=O)[nH]1` [GpppG, G(5′)ppp(5′)G], the “Kdisp (K displacement)” value in test [2] is “unable to displace; also recorded: did not disrupt; also recorded: no RNA displacement”. Consider `Cn1c[n+]([C@@H]2O[C@H](COP(=O)(O)OP(=O)(O)OP(=O)(O)OC[C@H]3O[C@@H](n4cnc5c(N)ncnc54)[C@H](O)[C@@H]3O)[C@@H](O)[C@H]2O)c2nc(N)[nH]c(=O)c21` [N7-meGpppA, m7G(5′)ppp(5′)A], for which the “Kdisp (K displacement)” value in test [2] turned out to be 20 ± 6 µM.

On to `Cn1c[n+]([C@@H]2O[C@H](COP(=O)(O)OP(=O)(O)OP(=O)(O)OC[C@H]3O[C@@H](n4cnc5c(=O)[nH]c(N)nc54)[C@H](O)[C@@H]3O)[C@@H](O)[C@H]2O)c2nc(N)[nH]c(=O)c21` [N7-meGpppG, m7G(5′)ppp(5′G], for which the “Kdisp (K displacement)” value in test [2] came out at 17 ± 3 µM. As to `C[S+](CC[C@H](N)C(=O)[O-])C[C@H]1O[C@@H](n2cnc3c(N)ncnc32)[C@H](O)[C@@H]1O` (stereo partly drawn) [SAM, S-adenosyl-L-methionine], the Kd in test [3] was 5.59 ± 1.15 µM; in test [4] it was 3.4 ± 1.5 µM.
